Values quoted from earlier work as cited in US20210009750A1, “3D PRINTING COMPOSITION FOR BIOMATERIALS” (TISSIUM SA, priority 2018, published 2021).

System: mammalian cell types
Conditions: broad range of mammalian cell types and species

For `CC(C)(O)C(=O)c1ccc(OCCO)cc1` [Irgacure 2959, 2-hydroxy-1-[4-(hydroxyethoxy)phenyl]-2-methyl-1-propanone], the “cytotoxicity (cell death)” value is listed as “minimal cytotoxicity”.
